The IC50 is the concentration that gives 50% inhibition.

“And” between values parts separate entries of the source, which are not always exact repeats. Equal values may be shown once.

For data set [1], the target named is T1, UDP-GlcNAc-2-epimerase (GNE) activity of GNE/MNK (Mus musculus, UniProt Q91WG8).
T1 construct: Analysis of GNE/MNK in mouse liver cytosol; from tissue; host or cells: mouse liver cytosol (supernatant of liver homogenate)
T1 sequence (Q91WG8 1-722): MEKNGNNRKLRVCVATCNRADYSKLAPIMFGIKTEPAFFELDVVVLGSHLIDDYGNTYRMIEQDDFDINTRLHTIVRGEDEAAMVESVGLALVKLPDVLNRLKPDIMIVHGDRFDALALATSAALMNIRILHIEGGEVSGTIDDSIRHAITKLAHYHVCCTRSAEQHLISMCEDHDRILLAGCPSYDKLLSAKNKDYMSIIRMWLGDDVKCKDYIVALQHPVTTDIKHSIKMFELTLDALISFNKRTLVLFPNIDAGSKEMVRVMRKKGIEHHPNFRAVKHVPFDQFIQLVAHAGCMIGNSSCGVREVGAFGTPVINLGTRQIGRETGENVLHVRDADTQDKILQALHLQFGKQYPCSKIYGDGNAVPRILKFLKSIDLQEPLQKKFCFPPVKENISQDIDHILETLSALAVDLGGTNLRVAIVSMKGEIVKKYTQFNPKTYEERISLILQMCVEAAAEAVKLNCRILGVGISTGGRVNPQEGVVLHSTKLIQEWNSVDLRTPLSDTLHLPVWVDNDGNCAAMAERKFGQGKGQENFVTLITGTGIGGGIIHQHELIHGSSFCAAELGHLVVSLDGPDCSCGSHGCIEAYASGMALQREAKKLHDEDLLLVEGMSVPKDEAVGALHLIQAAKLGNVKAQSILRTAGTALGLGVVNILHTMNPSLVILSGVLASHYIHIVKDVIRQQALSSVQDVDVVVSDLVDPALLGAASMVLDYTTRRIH
The data set can be described thus: Colorimetric GNE activity assay in mouse liver cytosol. Format: biochemical. The settings on record: 1 mM UDP-GlcNAc, 45 min at 37 °C, read-out: IC50 for inhibiting GNE activity. From the text:
With the potent diselenide compound 14b in hand, we further studied the binding properties of this potent MNK inhibitor, which is to our knowledge the strongest MNK inhibitor reported to date. Diselenide 14b inhibited MNK activity in a dose dependent manner (Fig. 2A). […] Additionally, we tested if diselenide 14b influenced the GNE activity of the bifunctional GNE/MNK. […] To evaluate the specificity of the inhibitor towards other sugar kinases, we performed further inhibition studies using human GlcNAc kinase (GNK) and hexokinase (HK) from yeast (details in ESI ^†).
Evaluation of the influence of 14b on UDP-GlcNAc-2-epimerase activity
To study, if diselenide 14b interferes with the activity of the GNE domain of the bifunctional enzyme, we used enzymes from mouse liver homogenates. […] The sample was incubated at 37 °C for 20 min and the absorbance was […]

Data set [2] in a line: Stability of the diselenide towards thiol reducing agents, 77Se NMR. Format: physicochemical. The procedure:
At this stage, we also wanted to evaluate the stability of the diselenide 14b in presence of thiol-containing reducing agents like dithiothreitol (DTT) or glutathione (GSH) to address the application of our compounds in living cells. Therefore, the possible reduction of the diselenide bond was monitored by ^77Se NMR using a solution of 60 mM concentration of 14b in an aqueous saturated DTT solution at room temperature. Immediately after the addition of 14b to the DTT solution, a characteristic signal for the selenol compound at –48.1 ppm was observed and a major peak at 294 ppm related to the diselenide. Concretely, the integration of diselenide/selenol peaks gave a 90 : 10 ratio (details in ESI ^†).

Turning to `CC(=O)N[C@@H]1C(O)O[C@H](C[Se][Se]C[C@H]2OC(O)[C@@H](NC(C)=O)[C@@H](O)[C@@H]2O)[C@@H](O)[C@@H]1O` (stereo partly drawn) [Compound 14b], the IC50 in data set [1] was ~200 µM and 182 µM. For the same compound, the “species detected by 77Se NMR” value in data set [2] (60 mM in aqueous saturated DTT solution, between 15 min and 5 h) was “only signals from the diselenide were detected”; in data set [2] (60 mM in saturated GSH solution) it was “only diselenide 14b was detected”.
